# Measured values reported in patent US8476240B2, “Histidine related compounds for identifying and blocking amyloid beta ion channels” (priority 2008, dated 2013).
# “Also recorded” adds a separate entry of the source. Read-outs that look alike come from different tables or passages of the source. Residues, ends and D or L forms follow the SMILES beside them.
# Legend:
# PC12 cells [1] = test: Protection of PC12 cells from Aβ cytotoxicity (LDH release / cell viability assay); assay type: cell-based
# Protocol: Previous studies have shown that the native peptide fragments from the Aβ polypeptide, NA4 (SEQ ID NO: 3) and NA7 (SEQ ID NO: 4), are able to block Aβ channel activity and protect cells from Aβ cytotoxicity. […] The concentration required for 50% protection (half maximal effective concentration, EC50) for NAHIS04 was less than 1 μM (Panel B). It was also between 2-3 times less than the EC50 for either NA4 or NA7.
# Aβ channel = test: Aβ channels incorporated into planar lipid bilayers, ionic current recording; assay type: biochemical; settings: for blocking of the flow of ionic charges conducted by Aβ channels: His 41.5 μM, NAHIS compounds 16.6 μM (FIG. 5B); for blocking of Aβ channel current activity / reversibility of Aβ channel blockage after washing the chamber: planar lipid bilayer; for blocking of Aβ channel current activity: zero membrane potential; for time to reduce the flow of ionic charges through the membrane by 50%: 16.6 μM; for reversibility of Aβ channel blockage after washing the chamber: after washing off the blocker; for time to block the flow of ionic charges through Aβ channels: 41.5 μM (FIG. 5B left plot)
# Protocol: Planar Lipid Bilayer Methodology: A suspension of palmitoyloleoyl phosphatidylserine and palmitoyloleoyl phosphatidylethanolamine, (Avanti, Alabaster, Ala.) 1:1, in η-decane was prepared. This suspension was applied to an orifice of about 100-120 μm in diameter with a Teflon film separating two compartments, 1.2 ml volume each. The ionic solutions in the compartments contained asymmetrical concentrations of CsCl (200cis/50trans mM) and symmetrical 0.5 mM CaCl2 and 5 mM K-HEPES, pH 7. The two ionic compartments were electrically connected to the input of a voltage clamp amplifier. Current was recorded using a patch clamp amplifier and data were stored on computer disk memory. Off-line analysis of the channel activity was carried out using the software package pClamp (Axon Instruments, Foster City, Calif.). Incorporation of Aβ peptide into the bilayer was obtained by adding an aliquot of proteoliposome (Aβ-liposome) suspension to the solution in the cis side of the planar lipid bilayer chamber and stirring.
# Preparation of Proteoliposomes: Liposomes were prepared by hydration of air-dried palmitoyloleoyl phosphatidylserine (10 mg) with 1 M potassium aspartate, pH 7.0 (1 ml), followed by water sonication for 5 min. The liposome suspension (50 μl) was mixed with a stock aqueous solution of Aβ peptide (1 mg/ml, obtained from Bachem, Torrance, Calif. and from AnaSpec, San Jose, Calif.), followed by sonication.
# Based on the theoretical model proposed by Durell et al. (1994), the predicted pore region of the Aβ channel is made of the hydrophilic structure composed of residues 1-16. The structure formed by a radial polymer of four to six Aβ subunits predicts that rings of His residues surround and form the path for the ions passing through the pore. […] This interaction will block the entrance to the Aβ pore, and consequently affect the flow of current through the Aβ channel. Therefore, various compounds of known His coordinating capacity were studied for their interaction with Aβ channels incorporated into planar lipid bilayers. No membrane potential difference was applied to the lipid bilayers, to avoid any disturbing effect the membrane potential may have on the channel activity and in the conformations of the channel.
# Here the effectiveness of the His-coordinating and His-related compounds was studied in terms of the time required to block the Aβ channel currents. […] When Aβ channels are incorporated into artificial membranes, they form multi-conductance systems. This is manifested by frequently fluctuating conductance between specific levels. […] The results were analyzed by an alternative procedure that quantifies the total ionic current flowing through the Aβ channel incorporated into the artificial lipid membrane at any given time. For this purpose, we integrated the total ionic current flowing through the membrane and averaged the amount of charge conducted in consecutive time intervals of 8 msec duration.
# Planar Lipid Bilayer Methodology and Preparation of Proteoliposomes: The experiments were performed as described previously except that the suspension of palmitoyloleoyl phosphatidylserine and palmitoyloleoyl phosphatidylethanolamine was applied to an orifice of about 80-100 μm in diameter with a Teflon film separating two compartments. In addition, the liposome suspension (50 μl) was mixed with a stock aqueous solution of Aβ40 (1 mg/ml; obtained from Invitrogen, Carlsbad, Calif.).
# PC12 cells [2] = test: Aβ-induced intracellular free calcium change in FURA-2AM loaded PC12 cells; assay type: cell-based, rat; settings: Aβ 7.66 μM; for block of Aβ-induced intracellular calcium increase: compound 16.66 μM, 15 minute time course
# Protocol: Intracellular Free Calcium measurements: Cells were plated on glass cover slips coated with poly-L-lysine and loaded with 2 μM FURA-2AM (Molecular Probes) calcium sensitive probe in incubation buffer (135 mM NaCl, 5 mM KCl, 2.5 mM CaCl2, 1.2 mM MgCl2, 10 mM glucose, 10 mM Hepes, pH 7.4). After 30 min of loading period, cells were treated with Aβ (7.66 μM). The time course of changes in the emission from FURA-2AM was observed using an inverted epi-fluorescence/phase contrast microscope equipped with a low-light level integrating CCD camera+microphotometer assembly (InCy I/P-2 Imaging & Photometry System, Intracellular Imaging INC.)
# A 15 minute time course experiment was performed of the intracellular free calcium change in six FURA-2AM loaded PC 12 cells before and after the addition of Aβ (7.66 μM) and Aβ+His-related compound (16.66 μM).
# Experiments in this Example were performed to determine if there was concentration dependence blockage of the Aβ-induced intracellular calcium response by NAHIS04. A time course of the intracellular free calcium change was taken in FURA-2AM loaded PC12 cells before and after the addition of Aβ (7.66 μM) to media containing different concentrations of NAHIS04. FIG. 11 illustrates that the concentration of the Aβ channel blocker is important and that the most efficient concentration of NAHIS04 for the blockage occurred at >5 μM.
# [3] = system: PC12 cells, cortical and hippocampal neurons; test: cells; settings: for concentration required for 50% protection (EC50): three different types of cells, three days; for concentration required for 50% protection (EC50) / protection of cells from Aβ cytotoxicity: Aβ peptide 5 μM; for protection of cells from Aβ cytotoxicity: three days of incubation, XTT and LDH, three cell types
# Protocol: Cell culture: PC 12 cells, derived from a transplantable rat pheochromocytoma (ATCC # CRL 1721), were cultured in the recommended ATCC medium. Primary cultures of hippocampal and cortical neurons from […] rat brains were grown in neurobasal medium/B27 (GIBCO). For neurons preparation, pregnant rats were anesthetized and killed to extract the fetuses. For pain alleviation, the animals were anesthetized following recommendations in the 2000 Report of the American Veterinary Medical Association Panel on Euthanasia. Brains from the fetuses were dissected out and neuronal cell cultures prepared as in a previously described protocol (Simakova and Arispe, 2006).
# Cell viability assays: The percentage of cells protected from Aβ-induced cell death by various treatments was evaluated by means of a colorimetric XTT assay (Cell Proliferation Kit II, Roche, Mannheim, Germany). The cytotoxicity was also directly measured by the release of lactate dehydrogenase (LDH) from the cytosol into the media (Cytotoxicity Detection Kit (LDH), Roche, Mannheim, Germany).
# Cell viability was examined using two different assays. These were the colorimetric XTT assay that quantifies metabolically active cells, and an assay that measures the release of lactate dehydrogenase (LDH) from the cytosol into the media, which evaluates the cell membrane integrity. […] The left panels (A, C and E) show the results from the XTT assay expressed as a percentage of cytotoxicity, and the right panels (B, D and F) show the results from the measurements of LDH released from cells into the media expressed as a percentage of protection of cells.
compound,measurement,setting,value
"CC(=O)N[C@@H](CO)C(=O)NCC(=O)N[C@@H](Cc1ccc(O)cc1)C(=O)N[C@@H](CCC(=O)O)C(=O)N[C@H](C(=O)N[C@@H](Cc1c[nH]cn1)C(=O)N[C@@H](Cc1c[nH]cn1)C(N)=O)C(C)C [NA4mod, Ac-SGYEVHH-CONH2] (Ac-SGYEVHH-NH2)",percent protection of PC12 cells from Aβ cytotoxicity,"PC12 cells [1]; Example 9, cell viability assay (FIG. 13)",percent protection is similar to the protection shown by NAHIS04
"CC(=O)N[C@@H](Cc1c[nH]cn1)C(N)=O [NAHIS01, Ac-His-CONH2]",blocking of the flow of ionic charges conducted by Aβ channels,Aβ channel,does not fully prevent the flow of ionic charges
same,blocking of Aβ channel current activity,Aβ channel,more effective at reducing all current peaks at much lower concentrations than unmodified His; also recorded: did not operate as a full channel blocker; also recorded: very efficient at blocking the Aβ ion channel
"N[C@@H](Cc1c[nH]cn1)C(=O)O [His, L-histidine, reference compound]",blocking of the flow of ionic charges conducted by Aβ channels,Aβ channel,very slow-acting or had almost no channel-blocking capacity
same,blocking of Aβ channel current activity,Aβ channel,only affect the current peaks of 5.8 and 4.2 pA; also recorded: mildly reduces the Aβ channel activity
"CC(=O)N[C@@H](Cc1cncn1C)C(=O)N[C@@H](Cc1cncn1C)C(N)=O [NAHIS02-(π-Met), Ac-His-π-Met-His-π-Met-CONH2]",blocking of the flow of ionic charges conducted by Aβ channels,Aβ channel,showed no blocking capacity
same,blocking of Aβ channel current activity,Aβ channel,did not affect the Aβ channel activity even at a fourfold higher concentration; also recorded: unable to block the Aβ channel activity even at a fourfold higher concentration
same,protection of PC12 cells against Aβ,"PC12 cells [1]; Example 6, LDH assay, Aβ40 for 24 hrs",did not protect the cells against Aβ
same,block of Aβ-induced intracellular calcium increase,PC12 cells [2],has lost this ability
"CC(=O)N[C@@H](Cc1c[nH]cn1)C(=O)N[C@@H](Cc1c[nH]cn1)C(N)=O [NAHIS02, Ac-His-His-CONH2]",time to reduce the flow of ionic charges through the membrane by 50%,Aβ channel,125 s
same,effect on Aβ channel current peaks,Aβ channel; 16.66 μM,removed all current peaks
same,time to reduce the Aβ channel activity to occasional channel openings,Aβ channel; 16.66 μM,several minutes
same,time to totally block the Aβ channel activity,Aβ channel; 16.66 μM,less than three
same,reversibility of Aβ channel blockage after washing the chamber,Aβ channel,reversed; also recorded: some recovery of channel activity
same,blocking of Aβ channel current activity,Aβ channel,efficiently block the multiple conductances
same,concentration required for 50% protection (EC50),[3],below the micromolar levels
same,block of Aβ-induced intracellular calcium increase,PC12 cells [2],has the capacity to block Aβ-induced intracellular calcium increase
"CC(C)[C@H](NC(=O)[C@H](CCC(=O)O)NC(=O)[C@H](Cc1ccc(O)cc1)NC(=O)CNC(=O)[C@@H](N)CO)C(=O)N[C@@H](Cc1c[nH]cn1)C(=O)N[C@@H](Cc1c[nH]cn1)C(=O)O [NA4, SGYEVHH, reference compound] (H-SGYEVHH-OH)",protection of PC12 cells from Aβ cytotoxicity,"PC12 cells [1]; Example 5, LDH release, three days",not as effective at blocking the Aβ channel as NAHIS04
"[Cl][Ni][Cl] [Ni^2+, NiCl2, reference compound]",time to block the flow of ionic charges through Aβ channels,Aβ channel,120 s
same,reversibility of Aβ channel blockage after washing the chamber,Aβ channel,irreversible
same,reversibility of Aβ channel blockage after washing the chamber,Aβ channel; listed as nickel,irreversibly block
same,blocking of Aβ channel current activity,Aβ channel,full block of the channel
same,toxicity of the compound to cells,[3]; high concentrations,cell-dependent toxicity at high concentrations
same,protection of cells from Aβ cytotoxicity,[3],fully protect the cells against Aβ cytotoxicity
"CC(=O)N[C@@H](Cc1c[nH]cn1)C(=O)N[C@@H](Cc1c[nH]cn1)C(=O)N[C@@H](Cc1c[nH]cn1)C(=O)N[C@@H](Cc1c[nH]cn1)C(N)=O [NAHIS04, Ac-His-His-His-His-CONH2] (Ac-HHHH-NH2)",time to reduce the flow of ionic charges through the membrane by 50%,Aβ channel,15 s
same,effect on Aβ channel current peaks,Aβ channel; 16.66 μM,removed all current peaks
same,time to reduce the Aβ channel activity to occasional channel openings,Aβ channel; 16.66 μM,20 s
same,speed of 50% reduction of ionic charge flow compared to NAHIS02,Aβ channel; NAHIS04 versus NAHIS02,eightfold
same,reversibility of Aβ channel blockage after washing the chamber,Aβ channel,irreversible; also recorded: stayed fully blocked after the chamber was washed
same,blocking of Aβ channel current activity,Aβ channel,efficiently block the multiple conductances
same,protection of cells from Aβ cytotoxicity,[3],fully protected the three different types of cells against Aβ
same,concentration required for 50% protection (EC50),[3],below the micromolar levels
same,protection of PC12 cells from Aβ cytotoxicity,PC12 cells [1],showed better protection of the cells
same,EC50,"PC12 cells [1]; PC12 cells, LDH release, three days of incubation, read-out: concentration required for 50% protection (EC50)",< 1000 nM
same,most efficient concentration for blockage of the Aβ-induced intracellular calcium response,PC12 cells [2]; 0.83 to 6.64 μM tested,> 5 µM
"c1c[nH]cn1 [imidazole, reference compound]",time to block the flow of ionic charges through Aβ channels,Aβ channel,30 s
same,reversibility of Aβ channel blockage after washing the chamber,Aβ channel,irreversibly block; also recorded: irreversible
same,blocking of Aβ channel current activity,Aβ channel,full block of the channel
same,EC50,"[3]; Rattus norvegicus, PC-12, 72 h, read-out: concentration required for 50% protection (EC50)",2000 to 3000 nM
